In US20130281493A1, “Method for Treating Cancer Harboring a p53 Mutation” (The Trustees of The University of Columbia in the City of …, priority 2010, published 2013):

Legend:
MDA-468 cells = assay: 3D culture of MDA-468 breast cancer cells (growth, morphology); assay type: cell-based
Experimental: (§1) Cells were then seeded at a density of 5,000 cells/well in Assay Medium (DMEM/F12+2% Horse Serum+10 μg/ml Insulin+0.5 μg/ml Hydrocortisone [+5 ng/ml EGF for MCF10A cultures]) containing 2% Matrigel.
(§2) Cells were fixed using 2% formaldehyde at room temperature for at least 30 min. […] Primary antibodies were incubated with the cultures for 1-2 hr at room temperature, followed by washing, and addition of fluorescently-conjugated secondary antibodies for 40 min at room temperature. Nuclei were counterstained with DRAQ5 (Cell Signaling #4084) or Propidium Iodide (Sigma #P4170). Confocal microscopy was conducted using an Olympus IX81 confocal microscope and analyzed using Fluoview software.
(§3) Cells were treated on Day 1 or Day 4 of the 3D protocol (as described in the figure legends) and refed every 4 days with fresh drug. […] This range approximates clinically achievable serum concentrations in human patients (Dimitroulakos et al., 1999; Wong et al., 2002), • 6-Fluoromevalonate (200 μM) as previously described (Cuthbert and Lipsky, 1990) and YM-53601, FTI-277 or GTI-2133 at or above their reported IC50 in cells (Lerner et al., 1995; Ugawa et al., 2000; Vasudevan et al., 1999), and with • Fatostatin at either 2 μM or 20 μM as previously described (Kamisuki et al., 2009).

MDA-231 cells [1] = assay: 3D culture of MDA-231 breast cancer cells (growth, invasive morphology); assay type: cell-based
Experimental: as §1, §2, §3

MCF10A cells = assay: 3D culture of non-malignant MCF10A mammary epithelial cells (acinar morphology, luminal clearance); assay type: cell-based, human; conditions: 1 mM, 8 days
Experimental: Cells were fixed using 2% formaldehyde at room temperature for at least 30 min. […] Primary antibodies were incubated with the cultures for 1-2 hr at room temperature, followed by washing, and addition of fluorescently-conjugated secondary antibodies for 40 min at room temperature. Nuclei were counterstained with DRAQ5 (Cell Signaling #4084) or Propidium Iodide (Sigma #P4170). Confocal microscopy was conducted using an Olympus IX81 confocal microscope and analyzed using Fluoview software. Cells were treated on Day 1 or Day 4 of the 3D protocol (as described in the figure legends) and refed every 4 days with fresh drug. […] This range approximates clinically achievable serum concentrations in human patients (Dimitroulakos et al., 1999; Wong et al., 2002), • 6-Fluoromevalonate (200 μM) as previously described (Cuthbert and Lipsky, 1990) and YM-53601, FTI-277 or GTI-2133 at or above their reported IC50 in cells (Lerner et al., 1995; Ugawa et al., 2000; Vasudevan et al., 1999), and with • Fatostatin at either 2 μM or 20 μM as previously described (Kamisuki et al., 2009).

MDA-468.shp53 cells = assay: Add-back in 3D culture of MDA-468.shp53 cells depleted of mutant p53 (+DOX); assay type: cell-based; conditions: MVA and MVAP added together, 1 mM each, from Day 1, 8 days
Experimental: (§4) Three-dimensional culture was carried out as previously described (Debnath et al., 2003). Briefly, 8-well chamber slides were lined with 50 μl growth factor reduced Matrigel (BD Biosciences). […] Cells were refed with Assay Medium containing 2% Matrigel every 4 days. For RNA/protein analysis from 3D cultures, 35 mm plates were lined with 500 μl Matrigel and cells were seeded at a density of 225,000 cells/plate in Assay Medium+2% Matrigel. Cells were harvested using Cell Recovery Solution (BD Biosciences) according to the manufacturer's instructions.

farnesyltransferase = farnesyltransferase (Homo sapiens, UniProt P49354+P49356); conditions: whole cells; Lerner et al., 1995; cited from earlier work
[2] = biological target: geranylgeranyl transferase (Homo sapiens, UniProt P49354+P53609); conditions: low micromolar concentrations; Lerner et al., 1995; cited from earlier work
squalene synthesis = conditions: low micromolar concentrations; Lerner et al., 1995; cited from earlier work
MDA-231.shp53 cells = conditions: 25 μM from Day 1, 8 days, +DOX
Experimental: as §4

MDA-231 cells [3] = assay: MDA-231 subcutaneous tumor growth in NOD-SCID mice; assay type: in vivo; conditions: 200 mg/kg/day, after 21 days of treatment
Experimental: 2×10^6 MDA-231 cells were injected subcutaneously into 8 week-old NOD-SCID mice. […] Tumor measurements were performed weekly using calipers. After 21 days of treatment, mice were sacrificed and tumors were extracted and weighed. Tumor volumes as a function of time (left) and tumor weights at day 21 (right) are presented. *denotes p<0.01, **denotes p<0.001 using a two-tailed students t-test. […] 2×10^6 MDA-231 cells were injected subcutaneously into 8 week-old NOD-SCID mice. […] Tumor measurements were performed weekly using calipers. After 21 days of treatment, mice were sacrificed and tumors were extracted and weighed. Tumor volumes as a function of time (left) and tumor weights at day 21 (right) are presented. *denotes p<0.01, **denotes p<0.001 using a two-tailed students t-test.

[4] = Serum level at the dose used in the mouse experiments; assay type: in vivo; conditions: mice, 200 mg/kg/day
squalene synthase = biological target: T1, squalene synthase (Homo sapiens, UniProt P37268); conditions: Ugawa et al., 2000; cited from earlier work
T1 sequence (P37268 1-417): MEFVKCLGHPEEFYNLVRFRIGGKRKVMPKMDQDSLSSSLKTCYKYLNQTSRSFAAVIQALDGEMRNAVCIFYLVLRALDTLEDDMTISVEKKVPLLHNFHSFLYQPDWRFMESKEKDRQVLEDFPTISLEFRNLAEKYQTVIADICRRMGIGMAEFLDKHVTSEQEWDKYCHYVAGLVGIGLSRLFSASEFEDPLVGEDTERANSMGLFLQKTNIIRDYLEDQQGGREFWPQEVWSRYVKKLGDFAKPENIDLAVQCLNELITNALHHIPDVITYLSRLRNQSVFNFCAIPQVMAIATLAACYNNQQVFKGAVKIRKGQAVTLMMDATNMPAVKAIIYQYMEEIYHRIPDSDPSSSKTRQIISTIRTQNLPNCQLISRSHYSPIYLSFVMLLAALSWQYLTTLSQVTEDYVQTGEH

C[C@@](O)(CCO)CC(=O)O (racemic) [mevalonic acid]
rescue of the phenotypic effects of statin treatment in 3D culture (MDA-468 cells; MDA-468 treated with Simvastatin 1 μM, supplemented): blocked many of the phenotypic effects of statins
rescue of the phenotypic effects of statin treatment in 3D culture (MDA-231 cells [1]; MDA-231 treated with Simvastatin 1 μM, supplemented): blocked many of the phenotypic effects of statins
luminal clearance in MCF10A cells (MCF10A cells): sufficient to block luminal clearance
effect on phenotypic reversion caused by mutant p53 knockdown (MDA-468.shp53 cells): dramatically inhibit

O=C(O)CC(O)(CF)CCO (stereo not drawn) [6-fluoromevalonate, 6-Fluoromevalonate]
phenotypic effects in 3D culture compared with HMG-CoA reductase inhibition by statins (MDA-468 cells; MDA-468, 200 μM, added Day 1, 8 days): remarkably similar phenotypic effects
phenotypic effects in 3D culture compared with HMG-CoA reductase inhibition by statins (MDA-231 cells [1]; MDA-231, 200 μM, added Day 1, 8 days): remarkably similar phenotypic effects

COC(=O)[C@H](CCSC)NC(=O)c1ccc(NC[C@@H](N)CS)cc1-c1ccccc1 [FTI-277]
effect on growth of MDA-231 cells in 3D culture (MDA-231 cells [1]; 1 uM, added Day 1, 8 days): only a mild effect
concentrations that block farnesylation via inhibition of farnesyltransferase (farnesyltransferase): nanomolar
effect on geranylgeranyl transferase [2]: no effect
effect on squalene synthesis (squalene synthesis): no effect

CC(C)C[C@H](NC(=O)c1ccc(NCc2cnc[nH]2)cc1-c1cccc2ccccc12)C(=O)O [GTI-2133]
effect on growth of MDA-231 cells in 3D culture (MDA-231 cells [1]; 1 uM, added Day 1, 8 days): profound impact
effect on invasive morphology of MDA-231 cells in 3D culture (MDA-231 cells [1]; 1 uM, added Day 1, 8 days): profound impact

CC(C)=CCC/C(C)=C/CC/C(C)=C/CC/C(C)=C/COP(=O)(O)OP(=O)(O)O [Geranylgeranyl pyrophosphate]
rescue of the morphological effects of HMG-CoA reductase inhibition (MDA-231 cells [1]; MDA-231 with Simvastatin 1 μM, 25 μM GGPP, 8 days): partially rescue
rescue of the morphological effects of mutant p53 depletion (MDA-231.shp53 cells): partially rescue

CC[C@H](C)C(=O)O[C@H]1CCC=C2C=C[C@H](C)[C@H](CC[C@@H]3C[C@@H](O)CC(=O)O3)[C@H]21 [Mevastatin]
3D morphology of MDA-468 cells (MDA-468 cells; 1 μM, added Day 4, 13 days): profoundly affects
3D morphology of MDA-231 cells (MDA-231 cells [1]; 1 μM, added Day 4, 13 days): profoundly affects

CCC(C)(C)C(=O)O[C@H]1C[C@@H](C)C=C2C=C[C@H](C)[C@H](CC[C@@H]3C[C@@H](O)CC(=O)O3)[C@H]21 [Simvastatin]
reduction of tumor size (MDA-231 cells [3]): about 40%
serum levels [4]: about 100 micromolar

F/C(COc1ccc2c(c1)[nH]c1ccccc12)=C1/CN2CCC1CC2 [YM-53601]
effect on growth of MDA-231 cells in 3D culture (MDA-231 cells [1]; 1 uM, added Day 1, 8 days): only a mild effect
killing of cancer cells in 3D culture (MDA-231 cells [1]; 10 uM): killed all the cancer cells
concentrations that inhibit squalene synthase (squalene synthase): submicromolar
